Measured values taken from patent publication US8445510B2, “Fused bicyclic kinase inhibitors” (OSI Pharmaceuticals, LLC, priority 2011, dated 2013).

Key:
Assay type in all cases: cell-based
c-MET = c-MET (Homo sapiens, UniProt P08581); assay: MET cell mechanistic assay (MKN45), phosphorylated MET ELISA; conditions: MKN45 cell line; inhibition of phosphorylated MET; 4 hours incubation; at least duplicate experiments; read-out: MET mech IC50
Description: The cellular activity of the compounds of the present invention against c-MET may be determined by the following procedure. MKN45 cells were plated in Falcon 3072 96-well plates in growth media (RPMI, 10% FBS, 1% L-glutamine) at a density of 5000 cells/well and incubated at 37° C., 5% CO2 overnight. The following day, one-tenth volume of a 10× concentration of compounds was added to the wells in a 6-point dilution series. The dilutions series was composed of an initial 1:5 dilution in DMSO, followed by a 1:10 dilution in growth media, for a final DMSO concentration on cells of 0.5%. Control wells were treated with 0.5% DMSO. The typical range of dilution was 10 μM to 3 nM. Once compound was added to the cells, plates were incubated for 4 hours at 37° C., 5% CO2. Plates were then washed in PBS, and lysed in triton-based lysis buffer. Lysates were transferred to a precoated capture plate made by Biosource (Cat # KHO0281). The phosphorylated MET levels were measured by incubating with a rabbit polyclonal antibody against phosphorylated MET ([pYpYpY1230/1234/1235]) followed by an anti-rabbit antibody conjugated to HRP. Signal was measured on a Wallac Victor plate reader at 450 nm. The DMSO signal of the control wells was defined as 100% and the percent of inhibition of phosphorylated MET was expressed as percent of control. IC50 values were determined from the percent of control data using a standard four-parameter model.
The IC50 values of exemplary compounds of the present invention determined in a MET cell mechanistic assay using the MKN45 cell line according to the procedures described herein in at least duplicate experiments are abbreviated as follows and are shown in Table 1: A, IC50≦0.05 μM; B, 0.05 μM<IC50≦0.2 μM; C, 0.2 μM<IC50≦1 μM; D, IC50>1 μM; ND, not determined. The Example # of Table 1 corresponds to the compound example number as illustrated in the Examples section.
Treatment of this cell line with a selective c-MET inhibitor led to induction of apoptosis and inhibition of proliferation, whereas non-MET-amplified cell lines were not affected [Smolen et al., Proc. Natl. Acad. Sci. USA, 103(7):2316-2321 (2006)]. This cell line is thus “driven” by c-MET, and antiproliferative effects correlate very well with the inhibition of c-MET phosphorylation so that the cell proliferation IC50, values can be used as surrogate for the c-MET cell mechanistic IC50, values. Under the assay conditions described herein, the IC50 values correlate nearly 1:1.

MKN45 cells = assay: MKN45 cell proliferation assay (CellTiter-Glo); conditions: Homo sapiens, MKN-45, 72 h; MKN45 cell line; 3 days incubation; at least duplicate experiments; read-out: Prolif. IC50
Aurora B = biological target: T1, Aurora B (Homo sapiens, UniProt Q96GD4); assay: Aurora B cell mechanistic assay (HT-29), phospho-Histone H3 (Ser10) ELISA; conditions: HT-29 cell line; inhibition of phospho-Histone H3 (Ser10); at least duplicate experiments (italicized if single experiment); read-out: Aurora B mech IC50
T1 construct: HT-29 cells grown in complete growth media
T1 sequence (Q96GD4 whole entry): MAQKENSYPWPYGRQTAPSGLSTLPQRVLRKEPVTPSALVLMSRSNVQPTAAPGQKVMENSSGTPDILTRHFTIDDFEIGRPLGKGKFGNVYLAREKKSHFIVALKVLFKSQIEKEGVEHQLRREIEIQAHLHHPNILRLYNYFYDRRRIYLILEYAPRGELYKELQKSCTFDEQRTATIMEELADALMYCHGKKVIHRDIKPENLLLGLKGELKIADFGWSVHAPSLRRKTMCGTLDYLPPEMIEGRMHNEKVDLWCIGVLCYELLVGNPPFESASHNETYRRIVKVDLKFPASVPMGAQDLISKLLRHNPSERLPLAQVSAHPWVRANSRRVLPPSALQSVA
Summary of the method: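 HT-29 cells treated 1 h at 37 °C with serially diluted compound, then 100 nM Calyculin A added for 30 min. Lysates assayed by phospho-Histone H3 (Ser10) ELISA at 450 nm; normalized to DMSO (100%) and a reference Aurora B inhibitor (full inhibition); IC50 by four-parameter fit.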

Chain of c-MET (P08581 25-1390): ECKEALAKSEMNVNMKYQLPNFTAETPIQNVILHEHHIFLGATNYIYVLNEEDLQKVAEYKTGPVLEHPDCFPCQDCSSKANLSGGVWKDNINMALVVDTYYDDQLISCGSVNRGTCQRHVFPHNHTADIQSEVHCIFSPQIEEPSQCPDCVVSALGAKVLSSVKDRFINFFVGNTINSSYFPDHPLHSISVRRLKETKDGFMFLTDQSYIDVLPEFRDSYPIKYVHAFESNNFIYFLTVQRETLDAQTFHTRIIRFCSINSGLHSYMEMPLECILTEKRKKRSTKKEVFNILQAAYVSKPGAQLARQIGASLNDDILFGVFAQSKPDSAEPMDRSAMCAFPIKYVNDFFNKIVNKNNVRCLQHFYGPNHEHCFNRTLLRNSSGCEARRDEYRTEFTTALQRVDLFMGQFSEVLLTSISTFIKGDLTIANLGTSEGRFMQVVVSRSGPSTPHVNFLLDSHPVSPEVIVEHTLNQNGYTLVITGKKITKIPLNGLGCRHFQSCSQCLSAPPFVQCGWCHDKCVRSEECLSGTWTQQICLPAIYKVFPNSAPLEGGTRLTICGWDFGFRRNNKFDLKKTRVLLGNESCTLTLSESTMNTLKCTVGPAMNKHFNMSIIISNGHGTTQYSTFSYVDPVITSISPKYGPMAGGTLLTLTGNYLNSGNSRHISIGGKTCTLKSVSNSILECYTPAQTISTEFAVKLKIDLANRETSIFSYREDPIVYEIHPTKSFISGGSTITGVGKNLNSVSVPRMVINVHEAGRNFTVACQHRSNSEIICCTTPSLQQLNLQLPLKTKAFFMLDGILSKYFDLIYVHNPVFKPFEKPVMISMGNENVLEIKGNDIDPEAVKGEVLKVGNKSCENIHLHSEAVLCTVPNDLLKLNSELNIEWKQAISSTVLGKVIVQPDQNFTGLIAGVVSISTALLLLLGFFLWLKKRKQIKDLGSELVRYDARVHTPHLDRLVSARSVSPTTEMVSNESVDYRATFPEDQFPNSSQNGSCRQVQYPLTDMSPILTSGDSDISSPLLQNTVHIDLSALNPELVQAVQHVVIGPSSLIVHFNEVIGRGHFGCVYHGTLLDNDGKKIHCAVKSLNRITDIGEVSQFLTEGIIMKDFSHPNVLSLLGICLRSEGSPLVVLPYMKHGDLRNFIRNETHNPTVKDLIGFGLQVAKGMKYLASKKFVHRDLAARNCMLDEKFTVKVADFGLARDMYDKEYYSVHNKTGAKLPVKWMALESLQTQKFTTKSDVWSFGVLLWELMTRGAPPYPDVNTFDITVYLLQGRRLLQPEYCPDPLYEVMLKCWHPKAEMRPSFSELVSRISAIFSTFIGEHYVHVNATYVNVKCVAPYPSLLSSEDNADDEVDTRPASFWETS

Structure (SMILES) | IC50 (c-MET) [nM] | IC50 (MKN45 cells) [nM] | IC50 (Aurora B) [nM]
COc1ccc(F)c(Cl)c1[C@@H](C)c1c[nH]c2ncc(-c3cn([C@H]4CC[C@H](O)CC4)nc3OC)cc12 [Example 99, trans-4-(4-{3-[(1S)-1-(2-chloro-3-fluoro-6-methoxyphenyl)ethyl]-1H-pyrrolo[2,3-b]pyridin-5-yl}-3-methoxy-1H-pyrazol-1-yl)cyclohexanol] | ≤ 50 | ≤ 50 | –
C[C@H](c1c(OC(F)F)ccc(F)c1Cl)c1c[nH]c2ncc(-c3cnc(N4CCC(O)CC4)n3C)cc12 [Example 125, 1-[5-(3-{(1S)-1-[2-Chloro-6-(difluoromethoxy)-3-fluorophenyl]ethyl}-1H-pyrrolo[2,3-b]pyridin-5-yl)-1-methyl-1H-imidazol-2-yl]piperidin-4-ol] | ≤ 50 | ≤ 50 | –
CCc1nn([C@H]2CC[C@H](O)CC2)cc1-c1cnc2[nH]cc([C@H](C)c3c(OC)ccc(F)c3Cl)c2c1 [Example 47, trans-4-(4-{3-[(1S)-1-(2-Chloro-3-fluoro-6-methoxyphenyl)ethyl]-1H-pyrrolo[2,3-b]pyridin-5-yl}-3-ethyl-1H-pyrazol-1-yl)cyclohexanol] | – | ≤ 50 | > 1000
COc1ccc(F)c(Cl)c1[C@@H](C)c1c[nH]c2ncc(-c3cn(C[C@@H](O)CO)nc3C(F)(F)F)cc12 [Example 34, (2R)-3-[4-{3-[(1S)-1-(2-Chloro-3-fluoro-6-methoxyphenyl)ethyl]-1H-pyrrolo[2,3-b]pyridin-5-yl}-3-(trifluoromethyl)-1H-pyrazol-1-yl]propane-1,2-diol] | – | 50 to 200 | > 1000
COc1ccc(F)c(Cl)c1[C@@H](C)c1c[nH]c2ncc(-c3c(C)nn([C@H]4CC[C@H](O)CC4)c3C)cc12 [Example 6, trans-4-(4-{3-[(1S)-1-(2-Chloro-3-fluoro-6-methoxyphenyl)ethyl]-1H-pyrrolo[2,3-b]pyridin-5-yl}-3,5-dimethyl-1H-pyrazol-1-yl)cyclohexanol] | – | ≤ 50 | > 1000

Now from value to compound:

IC50 (c-MET) [nM] | IC50 (MKN45 cells) [nM] | IC50 (Aurora B) [nM] | Structure (SMILES)
≤ 50 | ≤ 50 | – | Cc1c(-c2cnc3[nH]cc([C@H](C)c4c(OC(F)F)ccc(F)c4Cl)c3c2)cnn1C1CCNCC1 [Example 96, 3-{(1S)-1-[2-Chloro-6-(difluoromethoxy)-3-fluorophenyl]ethyl}-5-[5-methyl-1-(piperidin-4-yl)-1H-pyrazol-4-yl]-1H-pyrrolo[2,3-b]pyridine]
≤ 50 | ≤ 50 | – | COc1nn([C@H]2CC[C@H](O)CC2)cc1-c1cnc2[nH]cc([C@H](C)c3c(OC(F)F)ccc(F)c3Cl)c2c1 [Example 100, trans-4-[4-(3-{(1S)-1-[2-chloro-6-(difluoromethoxy)-3-fluorophenyl]ethyl}-1H-pyrrolo[2,3-b]pyridin-5-yl)-3-methoxy-1H-pyrazol-1-yl]cyclohexanol]
≤ 50 | ≤ 50 | – | COc1ccc(F)c(Cl)c1[C@@H](CF)c1c[nH]c2ncc(-c3cnn([C@H]4CC[C@H](O)CC4)c3C)cc12 [Example 121, trans-4-(4-{3-[(1S)-1-(2-Chloro-3-fluoro-6-methoxyphenyl)-2-fluoroethyl]-1H-pyrrolo[2,3-b]pyridin-5-yl}-5-methyl-1H-pyrazol-1-yl)cyclohexanol]
200 to 1000 | 200 to 1000 | – | Cc1c(-c2cnc3[nH]cc([C@@H](CF)c4c(OC(F)F)ccc(F)c4Cl)c3c2)cnn1[C@H]1CC[C@H](O)CC1 [Example 123, trans-4-[4-(3-{(1R)-1-[2-chloro-6-(difluoromethoxy)-3-fluorophenyl]-2-fluoroethyl}-1H-pyrrolo[2,3-b]pyridin-5-yl)-5-methyl-1H-pyrazol-1-yl]cyclohexanol]
– | ≤ 50 | > 1000 | C[C@H](c1c(OC(F)F)ccc(F)c1Cl)c1c[nH]c2ncc(-c3cnn([C@H]4CC[C@H](O)CC4)c3CO)cc12 [Example 83, trans-4-[4-(3-{(1S)-1-[2-Chloro-6-(difluoromethoxy)-3-fluorophenyl]ethyl}-1H-pyrrolo[2,3-b]pyridin-5-yl)-5-(hydroxymethyl)-1H-pyrazol-1-yl]cyclohexanol]
